Results published in US20040023884A1, “Biologically active peptides from functional domains of bactericidal/permeability-increasing protein and uses thereof” (priority 1993, published 2004).
≈ marks a conversion by molar mass, not a printed value. Square brackets hold non-standard residues; d marks the D form. Ends that are not written are not given here. Peptide text beside a SMILES is read from it. 1Nal = N[C@@H](Cc1cccc2ccccc12)C(=O)O

How the values were obtained:
RAW 264.7 cells = assay: LPS neutralization cellular proliferation assay, RAW 264.7 cells; assay type: cell-based, mouse
Experimental: In this assay, mouse RAW 264.7 cells (ATCC Accession No. T1B71), maintained in RPMI 1640 media (GIBCO), supplemented with 10 mM HEPES buffer (pH 7.4), 2 mM L-glutamine, penicillin (100U/mL), streptomcin (100 μg/mL), 0.075% sodium bicarbonate, […] 2-mercaptoethanol and 10% fetal bovine serum (Hyclone, Inc., Logan, Utah), were first induced by incubation in the presence of 50U/mL recombinant mouse y-interferon (Genzyme, Cambridge, Mass.) for 24 h prior to assay. Induced cells were then mechanically collected and centrifuged at 500×g at 4° C. and then resuspended in 50 mL RPMI 1640 media (without supplements), re-centrifuged and again resuspended in RPMI 1640 media (without supplements). The cells were counted and their concentration adjusted to 2×10^5 cells/mL and 100 μL aliquots were added to each well of a 96-well microtitre plate. The cells were then incubated for about 15 hours with E. coli O113 LPS (Control Standard. Assoc. of Cape Cod. Woods Hole, Mass.), which was added in 100 μL/well aliquots at a concentration of […] in serum-free RPMI 1640 media (this concentration being the result of titration experiments in which LPS concentration was varied between 50 pg/mL and 100 ng/mL). This incubation was performed in the absence or presence of BPI functional domain peptides in varying concentrations between 25 ng/mL and 50 μg/mL. Recombinant human BPI was used as a positive control at a concentration of 1 μg/mL. Cell proliferation was quantitatively measured by the addition of 1 μCi/well [^3H]-thymidine 5 hours after the time of initiation of the assay. After the 15-hour incubation, labeled cells were harvested onto glass fiber filters with a cell harvester (Inotech Biosystems, EQ-384, Sample Processing and Filter Counting System, Lansing, Mich.).

[1] = tested on: E. coli 0111:B4 (smooth) bacteria; assay: Radial diffusion bactericidal assay, E. coli 0111:B4; assay type: cell-based; conditions: radial diffusion; PROBIT analysis; E. coli O111:B4 (smooth)
[2] = 3H-heparin binding assay (affinity and capacity); conditions: for Heparin Capacity: heparin bound at saturation; for Kd: read-out: Heparin Affinity
In short: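 Peptide fragments were bound to PVDF-membrane wells and incubated with 3H-heparin in blocking buffer for 1 h at 4 °C. After washing, bound radioactivity was quantified by liquid scintillation counting, with BSA background subtracted; rBPI23 served as positive control.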

[3] = tested on: rough mutant E. coli J5 bacteria; assay: Radial diffusion bactericidal assay, E. coli J5; assay type: cell-based; conditions: for bactericidal activity (in words) / pmol added to well to achieve a 30 mm^2 bactericidal zone, E. coli J5: radial diffusion; for bactericidal activity (in words): E. coli J5; for pmol added to well to achieve a 30 mm^2 bactericidal zone, E. coli J5: PROBIT analysis, E. coli J5 (rough)
In short: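 Log-phase bacteria (3 h at 37 °C in tryptic soy broth), washed in 10 mM sodium phosphate pH 7.4, were embedded at 4×10^6 CFU/mL in underlayer agarose. BPI proteolytic fragments (5 or 10 μL) went into 3 mm wells for 3 h at 37 °C, then agarose overlay and overnight 37 °C growth. Clear zones were measured by micrometer.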

Staphylococcus aureus = assay: Radial diffusion bactericidal assay, Staphylococcus aureus; assay type: cell-based; conditions: radial diffusion; PROBIT analysis; S. aureus
Candida albicans = assay type: cell-based

| Molecule | EC50 (peptide concentration at which the growth inhibitory effect of LPS was reversed by 50%) (RAW 264.7 cells) [µg/mL] | IC50 (peptide concentration at which RAW cell growth was inhibited by 50%) (RAW 264.7 cells) | pmol added to well to achieve a 30 mm^2 bactericidal zone, E. coli O111:B4 [1] | heparin binding capacity (in words) [2] | Heparin Capacity [2] [ng] | Kd [2] [nM] | activity of position 95 substitution variants (in words) ([3]; activity not further specified) | bactericidal activity (in words) [3] | pmol added to well to achieve a 30 mm^2 bactericidal zone, E. coli J5 [3] | pmol added to well to achieve a 30 mm^2 bactericidal zone, S. aureus (Staphylococcus aureus) | behaviour in the RAW 264.7 proliferation assay (in words) (RAW 264.7 cells) | MIC C. alb (Candida albicans) [µg/mL] |
| --- | --- | --- | --- | --- | --- | --- | --- | --- | --- | --- | --- | --- |
| KSKVGWLIQLFHKK [BPI.13p] | 2.0 ± 0.3 | >50 µg/mL |  |  |  |  |  |  |  |  |  |  |
| IKISGKWKAQFRFLK [BPI.73] | 22 ± 10 | — (No proliferation decrease up to 50 μg/ml) | 3,290.60 pmol | extremely high heparin capacity | 413.4 | 227 | improved activity compared with the alanine substitution species | highly bactericidal | 57.28 pmol | 2,313,133.50 pmol |  |  |
| KWKAAARFLKKWKAQKRFLK [BPI.46] | 1.9 ± 1.9 | 18.8 ± 0.8 µg/mL | 2,970.26 pmol | extremely high heparin capacity | 321.1 | 1070 |  | highly bactericidal | 186.69 pmol | 3,810,752.30 pmol |  |  |
| IKISGKWKAFKRFLK [BPI.81] |  | 14 ± 0.2 µg/mL | 3,018.90 pmol |  | 318.4 | 335 |  |  | 283.84 pmol | 9,477.20 pmol | unable to reverse the growth inhibitory effect of LPS |  |
| CC[C@H](C)[C@H](N)C(=O)N[C@@H](CCCCN)C(=O)N[C@H](C(=O)N[C@@H](CO)C(=O)NCC(=O)N[C@@H](CCCCN)C(=O)N[C@@H](Cc1cccc2ccccc12)C(=O)N[C@@H](CCCCN)C(=O)N[C@@H](C)C(=O)N[C@@H](CCC(N)=O)C(=O)N[C@@H](Cc1ccccc1)C(=O)N[C@@H](CCCNC(=N)N)C(=O)N[C@@H](Cc1ccccc1)C(=O)N[C@@H](CC(C)C)C(=O)N[C@@H](CCCCN)C(=O)N[C@@H](CCCCN)C(=O)N[C@@H](CO)C(=O)N[C@@H](CCCCN)C(=O)N[C@H](C(=O)NCC(=O)N[C@@H](Cc1c[nH]c2ccccc12)C(=O)N[C@@H](CC(C)C)C(=O)N[C@H](C(=O)N[C@@H](Cc1ccccc1)C(=O)N[C@@H](CC(C)C)C(=O)N[C@@H](Cc1ccccc1)C(=O)N[C@@H](Cc1c[nH]cn1)C(=O)N[C@@H](CCCCN)C(=O)N[C@@H](CCCCN)C(=O)O)[C@@H](C)CC)C(C)C)[C@@H](C)CC [BPI.98] (H-IKISGK[1Nal]KAQFRFLKKSKVGWLIFLFHKK-OH) | 0.16 ± 0.08 | 16.5 ± 1.9 µg/mL (≈ 4.62 µM) | 63,709.98 pmol |  | 1678.4 | 683 |  |  | 4,384.14 pmol | b (no detectable activity up to 5 μg/well) |  |  |
| IKISGKWKAQWRFLK [BPI.77] | 10 ± 32 | >50 µg/mL | b (no detectable activity up to 5 μg/well) |  | 581.7 | 302 |  |  | 455.08 pmol | 1,684.35 pmol |  |  |
| CC[C@H](C)[C@H](N)C(=O)N[C@@H](CCCCN)C(=O)N[C@H](C(=O)N[C@@H](CO)C(=O)NCC(=O)N[C@@H](CCCCN)C(=O)N[C@@H](Cc1c[nH]c2ccccc12)C(=O)N[C@@H](CCCCN)C(=O)N[C@@H](C)C(=O)N[C@@H](CCC(N)=O)C(=O)N[C@@H](CCCCN)C(=O)N[C@@H](CCCNC(=N)N)C(=O)N[C@@H](Cc1ccccc1)C(=O)N[C@@H](CC(C)C)C(=O)N[C@@H](CCCCN)C(=O)NCCCC[C@H](NC(=O)[C@H](CCCCN)NC(=O)[C@H](CC(C)C)NC(=O)[C@H](Cc1ccccc1)NC(=O)[C@H](CCCNC(=N)N)NC(=O)[C@H](CCCCN)NC(=O)[C@H](CCC(N)=O)NC(=O)[C@H](C)NC(=O)[C@H](CCCCN)NC(=O)[C@H](Cc1c[nH]c2ccccc12)NC(=O)[C@H](CCCCN)NC(=O)CNC(=O)[C@H](CO)NC(=O)[C@@H](NC(=O)[C@H](CCCCN)NC(=O)[C@@H](N)[C@@H](C)CC)[C@@H](C)CC)C(=O)NCCCC[C@H](NC(=O)[C@H](CCCCNC(=O)[C@H](CCCCN)NC(=O)[C@H](CC(C)C)NC(=O)[C@H](Cc1ccccc1)NC(=O)[C@H](CCCNC(=N)N)NC(=O)[C@H](CCCCN)NC(=O)[C@H](CCC(N)=O)NC(=O)[C@H](C)NC(=O)[C@H](CCCCN)NC(=O)[C@H](Cc1c[nH]c2ccccc12)NC(=O)[C@H](CCCCN)NC(=O)CNC(=O)[C@H](CO)NC(=O)[C@@H](NC(=O)[C@H](CCCCN)NC(=O)[C@@H](N)[C@@H](C)CC)[C@@H](C)CC)NC(=O)[C@H](CCCCN)NC(=O)[C@H](CC(C)C)NC(=O)[C@H](Cc1ccccc1)NC(=O)[C@H](CCCNC(=N)N)NC(=O)[C@H](CCCCN)NC(=O)[C@H](CCC(N)=O)NC(=O)[C@H](C)NC(=O)[C@H](CCCCN)NC(=O)[C@H](Cc1c[nH]c2ccccc12)NC(=O)[C@H](CCCCN)NC(=O)CNC(=O)[C@H](CO)NC(=O)[C@@H](NC(=O)[C@H](CCCCN)NC(=O)[C@@H](N)[C@@H](C)CC)[C@@H](C)CC)C(=O)NCCC(=O)O)[C@@H](C)CC [MAP.1, β-alanyl-Nα,Nε-substituted-{Nα,Nε(BPI.2)lysyl}lysine] | 0.45 ± 0.1 |  | 552.79 pmol | extremely high heparin capacity | 459.1 | 937 |  | highly bactericidal | 105.71 pmol | 1,382.60 pmol |  |  |
| CC[C@H](C)[C@H](NC(=O)[C@H](CC(C)C)NC(=O)[C@H](Cc1c[nH]c2ccccc12)NC(=O)CNC(=O)[C@@H](NC(=O)[C@H](CCCCN)NC(=O)[C@H](CO)NC(=O)[C@@H](N)CCCCN)C(C)C)C(=O)N[C@@H](CCC(N)=O)C(=O)N[C@@H](CC(C)C)C(=O)N[C@@H](Cc1ccccc1)C(=O)N[C@@H](Cc1cccc2ccccc12)C(=O)N[C@@H](CCCCN)C(=O)N[C@@H](Cc1cccc2ccccc12)C(=O)O [BPI.146] (H-KSKVGWLIQLF[1Nal]K[1Nal]-OH; N-terminus and C-terminus assumed) |  |  | b (no detectable activity up to 5 μg/well) |  |  |  |  |  | b (no detectable activity up to 5 μg/well) | b (no detectable activity up to 5 μg/well) |  | >50.00 |
